Reference: US20070003636A1, “Statins (HMG-COA reductase inhibitors) as a novel type of immunomodulator, immunosuppressor and anti-inflammatory agent” (priority 2003, published 2007)

Tests used:
CRP = conditions: cited from earlier work
CD40 = assay: IFN-γ induced CD40 expression on vascular endothelial cells (Western blot); assay type: cell-based, human; conditions: ECs; for CD40 expression with co-treatment by IFN-γ and statin: IFN-γ 500 U/ml, 24 hrs, Western blotting
Description: Cell isolation and culture. […] Human vascular smooth muscle (SMCs) cells were isolated from human saphenous veins and mammary arteries by explant outgrowth, and cultured in DMEM (BioWhittaker) supplemented with 1% L-glutamine (BioWhittaker), 1% penicillin/streptomycin, and 10% FCS. Both cell types were subcultured following trypsinization (0.5% trypsin (Worthington Biochemicals)/0.2% EDTA (EM Science)) in P100-culture dishes (Becton Dickinson).
Western blots analysis. Cells were harvested in ice-cold RIPA solubilization buffer, and total amounts of protein were determined using a bicinchoninic acid quantification assay (Pierce, Rockford, Ill.). Twenty μg of total protein/lane were separated by SDS/PAGE under reducing conditions and blotted to polyvinylidene difluoride membranes (Millipore Corp., Bedford, Mass.) using a semidry blotting apparatus (Bio-Rad, Hercules, Calif.). Blots were blocked overnight in 5% defatted dry milk/PBS/0.1% Tween, and then incubated for 1 hour at room temperature with primary antibody (1:40) (rabbit […] anti-CD40 Santa Cruz, San Diego, Calif.), or mouse monoclonal anti-human […] (1:5000) (Pharmingen) for control of loading. This was followed by a 1 hour incubation with secondary peroxidase-conjugated antibody (1:10,000), (Jackson Immunoresearch, West Grove, Pa.). […] Immunoreactivity was detected using the enhanced chemiluminescence detection method according to the manufacturer's instructions. (Amersham, Dübendorf Switzerland), and subsequent exposure of the membranes to x-ray film. Analysis of quantification of detection was performed using AIDA software.

MHC class II = conditions: ECs, IFN-γ 500 U/ml 48 hrs; compared among Atorvastatin, Lovastatin, Pravastatin
Protocol: Cell isolation and culture. […] Flow cytometry. […] Data were analyzed using […] software (Becton Dickinson).

CD40 mediated pathways = assay: CD40L induced cytokine release (IL-6, IL-8, MCP-1) from ECs, ELISA; assay type: cell-based, human; conditions: added to statin and CD154
Protocol: Cytokines assay. […] Experiments were performed in the presence of polymyxin B (1 μg/ml). Antibody binding was detected by adding substrate (R&D), and absorbance measured at 450 nm using a Dynatech plate reader. The amount of IL-6, IL-8 and MCP-1 detected was calculated from a standard curve prepared with the recombinant protein. Samples were assayed in duplicates.
To investigate the functional consequences of inhibition of CD40 expression by statins on Endothelial Cells activation by CD40L, secreted cytokines were analyzed such as Interleukin-6 (IL-6), interleukin-8 (IL-8), macrophages chemoattractant protein-1 (MCP-1). Addition of an anti-CD40LmAb blocked the induction of all three secreted cytokines in response to CD40 ligation.

CC(C)c1c(C(=O)Nc2ccccc2)c(-c2ccccc2)c(-c2ccc(F)cc2)n1CC[C@@H](O)C[C@@H](O)CC(=O)O [Atorvastatin]
CRP levels (CRP; 80 mg/day): decrease in CRP levels | effect on biological markers of inflammation (CRP; in vivo): dose-dependent | effect on IFN-γ induced CD40 in the presence of L-mevalonate (CD40): markedly reduced | IFN-γ induction of CD40, dose dependence (CD40; IFN-γ 500 U/ml 24 hrs): repressed this induction of CD40 in a dose-dependant manner | concentration range over which effect on CD40 was observed (CD40; IFN-γ 500 U/ml 24 hrs): 0.08 to 5 µM | CD40 expression with co-treatment by IFN-γ and statin (CD40): decreased | CD40 expression, treatment with statin alone (CD40; without IFN-γ): had an effect on CD40 expression | potency as MHC class II repressor (MHC class II): most powerful MHC class II repressor

CC[C@H](C)C(=O)O[C@H]1C[C@@H](C)C=C2C=C[C@H](C)[C@H](CC[C@@H]3C[C@@H](O)CC(=O)O3)[C@H]21 [lovastatin, Lovastatin]
CD40 expression with co-treatment by IFN-γ and statin (CD40): decreased

L-mevalonate
reversal of statin effect on cytokine secretion (CD40 mediated pathways): significantly reverses the process
